Results taken from patent US7713948B2, “Use of 5-substituted nucleosides for reinforcing the apoptotic effect of cytostatic drugs” (Resprotect GmbH, priority 2003, dated 2010).
“Also recorded” adds a separate entry of the source.

Assays:
[1] = system: APURINIC ENDONUCLEASE; APE; APE1; APEX; assay: Two-dimensional gel electrophoresis, APEX; type: cell-based; settings: co-treatment of MMC with BVDU
Excerpt: (§1) Listing of the proteins influenced by the treatment with base analogues and mitomycin C. The results of the implementation of a two-dimensional gel electrophoresis are compiled in the following Table 2.

[2] = system: UBIQUITIN-CONJUGATING ENZYME E2N; UBE2N; assay: Two-dimensional gel electrophoresis, UBE2N; type: cell-based; settings: co-treatment of MMC with BVDU
Excerpt: as §1

AH13r sarcoma cells = assay: AH13r cell number under increasing doses of cytostatic with or without BVDU, followed by recovery phase; type: cell-based, rat; settings: for cell number: cytostatic + BVDU after three treatment cycles, in comparison to cytostatic alone
Excerpt: This effect was established by means of a screening system according to the invention. This screening method is based on the treatment of tumour cells during a chemotherapy cycle over a period of preferably eight to thirty days with increasing doses of a cytostatic and a constant dose of the overexpression inhibitor. After this combination treatment, the cytostatic is discontinued and the treatment is continued solely with the overexpression inhibitor. This recovery phase (also called recovery phase) lasts preferably between 3 and 10 days. Chemotherapy cycles of this type can be implemented successively up to 6 times.
AH13r cells were subjected to increasing doses of the cytostatic mitomycin C (MMC). […] This inhibitory effect was maintained even after discontinuation of the cytostatic in the next cycle, in the so-called recovery phase. The cells without MMC and BVDU continued to grow without inhibition.

STAT3 = assay: Western Blot analysis of survival pathways, STAT3; type: cell-based; settings: after DOX treatment, recovery phase (only BVDU given, no cytostatic)
Excerpt: (§2) We tested different “survival pathways” by means of Western Blot analysis. The analyses were implemented according to standard methods, as is described in Sambrook et al., 2001, Molecular Cloning (3rd ed.). Antibody dilutions: P-STAT3 (cell signalling) 1:500, JUN-D (Santa Cruz, Calif.) 1:1,000.
(§3) The densitometrically determined content of oncogene proteins JUN-D and STAT3 was reduced by a quarter or two thirds after DOX treatment in the recovery phase (r=recovery phase). In the “recovery” only BVDU is given, no cytostatic.

JUN-D = assay: Western Blot analysis of survival pathways, JUN-D; type: cell-based
Excerpt: as §2, §3

AH13r tumour cells = assay: Hoechst 33258/propidium iodide (Hopi) double colouration for apoptosis; type: cell-based; settings: HOPI double colouration of AH13r tumour cells of the rat
[3] = system: dimethybenzanthracene (DMBA) induced tumours; assay: DMBA-induced tumours in SD rats, tumour size; type: in vivo; settings: DOX 1 mg/kg
Protocol: (§4) The reduction in toxic side effects of doxorubicin (DOX) was able to be shown in the test with rats (see Table 1). SD rats were treated with dimethybenzanthracene (DMBA). […] During the treatment and one day after each treatment, i.e. in the recovery phase, the animals obtained respectively 15 mg/kg BVDU.

[4] = DMBA tumour test in SD rats, animal weight (toxic side effects); type: in vivo
Protocol: DT-D inactivates ROS and thus protects cells from non-specific ROS and electrophilic attacks. […] DOX treatment alone leads to weight losses because of the toxic side effects. It is certain that only the side effects (possibly the cardiotoxicity characteristic of DOX) are reduced by BVDU but not the toxic effects on the tumour.
as §4

SMILES: O=c1[nH]c(=O)n([C@H]2C[C@H](O)[C@@H](CO)O2)cc1/C=C/Br [BVDU, (E)-5-(2-bromovinyl)-2′-deoxyuridine]
- reduction of overexpression of APEX [1]: approximately one third
- reduction of overexpression of UBE2N [2]: approximately one third
- cell growth in the recovery phase (AH13r sarcoma cells; after discontinuation of the cytostatic, BVDU continued alone): greatly inhibited in their growth
- toxic effect on cells (AH13r sarcoma cells; given alone): no toxic effect
- reduction of densitometrically determined content of STAT3 (STAT3): approximately two thirds
- inhibition of MMC induced JUN-D overexpression (JUN-D; BVDU given in the recovery after MMC): complete inhibition
- reduction of densitometrically determined content of JUN-D (JUN-D; after DOX treatment, recovery phase (only BVDU given, no cytostatic)): approximately one quarter; also recorded: a quarter
- apoptosis (AH13r tumour cells): promotes apoptosis

SMILES: COc1cccc2c1C(=O)c1c(O)c3c(c(O)c1C2=O)C[C@@](O)(C(=O)CO)C[C@@H]3O[C@H]1C[C@H](N)[C@H](O)[C@H](C)O1 [DOX, doxorubicin]
- Relative tumour size Day 1 ([3]; DMBA-induced tumours, BVDU 15 mg/kg, average of 5-8 rats, Day 1): 1
- Relative tumour size Day 16 ([3]; DMBA-induced tumours, BVDU 15 mg/kg, average of 5-8 rats, Day 16): 1.5
- growth of DMBA-induced tumours [3]: inhibited in their growth
- cell number (AH13r sarcoma cells): Corresponding results
- Relative animal weight Day 1 ([4]; SD rats, DMBA-induced tumours, DOX 1 mg/kg, BVDU 15 mg/kg, average of 5-8 rats, Day 1): 0
- Relative animal weight Day 16 ([4]; SD rats, DMBA-induced tumours, DOX 1 mg/kg, BVDU 15 mg/kg, average of 5-8 rats, Day 16): −7%
- animal weight change (toxic side effects) ([4]; rat, in vivo): weight losses
- apoptosis (AH13r tumour cells): initiate apoptosis

SMILES: CO[C@@]12[C@H](COC(N)=O)C3=C(C(=O)C(C)=C(N)C3=O)N1C[C@@H]1N[C@@H]12 [MMC, mitomycin C]
- apoptosis (AH13r tumour cells): initiate apoptosis

SMILES: CN(Cc1cnc2nc(N)nc(N)c2n1)c1ccc(C(=O)N[C@@H](CCC(=O)O)C(=O)O)cc1 [MTX, methotrexate]
- cell number (AH13r sarcoma cells): Corresponding results

SMILES: O=C1c2c(O)ccc(O)c2C(=O)c2c(NCCNCCO)ccc(NCCNCCO)c21 [MXA, mitoxantrone]
- cell number (AH13r sarcoma cells): Corresponding results
- apoptosis (AH13r tumour cells): initiate apoptosis
